Measured values taken from PMC4447455, “Towards Elucidating Carnosic Acid Biosynthesis in Lamiaceae: Functional Characterization of the Three First Steps of the Pathway in Salvia fruticosa and Rosmarinus officinalis” (PLoS ONE, 2015).

Legend:
SfKSL [1] = molecular target: T1, SfKSL (Salvia fruticosa, UniProt A0A0C5QH30); test: coupled assay with SfCPS, GC-MS of product; type: biochemical; conditions: CDP formed in situ by SfCPS from 200 uM GGDP; pH 7.0, 20 mM MgCl2, 0.2 mM MnCl2, room temperature overnight
T1 construct: gene KSL; pseudomature SfKSLm without predicted N-terminal transit peptide (49 residues); full ORF 1755 bp; lacks gamma domain
T1 sequence (A0A0C5QH30 50-584): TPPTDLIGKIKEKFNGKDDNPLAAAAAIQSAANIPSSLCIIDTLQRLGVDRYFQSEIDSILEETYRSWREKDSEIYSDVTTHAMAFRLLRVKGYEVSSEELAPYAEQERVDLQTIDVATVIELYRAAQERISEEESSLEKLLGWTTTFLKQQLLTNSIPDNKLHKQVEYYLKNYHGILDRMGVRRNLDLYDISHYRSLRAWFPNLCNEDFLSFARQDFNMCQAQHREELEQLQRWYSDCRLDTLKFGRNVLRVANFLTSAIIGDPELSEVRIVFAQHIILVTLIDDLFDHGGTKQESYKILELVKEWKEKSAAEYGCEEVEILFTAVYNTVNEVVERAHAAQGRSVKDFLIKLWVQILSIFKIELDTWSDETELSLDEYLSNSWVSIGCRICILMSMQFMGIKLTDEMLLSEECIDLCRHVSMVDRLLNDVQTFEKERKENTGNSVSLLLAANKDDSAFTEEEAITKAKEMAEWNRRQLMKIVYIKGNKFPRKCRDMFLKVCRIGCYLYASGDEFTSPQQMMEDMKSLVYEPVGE

SfCPS = molecular target: T2, SfCPS (Salvia fruticosa, UniProt A0A0A7RQ84); test: GC-MS of dephosphorylated product (copalol); type: biochemical; conditions: pH 7.0, 20 mM MgCl2, 0.2 mM MnCl2, 60 uM GGDP, room temperature overnight
T2 construct: gene CDS; pseudomature SfCPSm without predicted N-terminal transit peptide (30 residues); full ORF 2391 bp

RoFS1 = molecular target: T3, RoFS1 (Salvia rosmarinus, UniProt A0A0C5Q4Y6); test: yeast co-expression, GC-MS; type: cell-based; conditions: co-expressed RoCPS1m, RoKSL1f, PtCPR2; also shown in N. benthamiana
T3 construct: gene CYP76AH22; P450 ORF in pWTDH3, expressed in S. cerevisiae AM113 with RoCPS1m, RoKSL1f and poplar reductase PtCPR2; also N. benthamiana with SfCPS, SfKSL, AtCPR1
T3 sequence (A0A0C5Q4Y6 1-493): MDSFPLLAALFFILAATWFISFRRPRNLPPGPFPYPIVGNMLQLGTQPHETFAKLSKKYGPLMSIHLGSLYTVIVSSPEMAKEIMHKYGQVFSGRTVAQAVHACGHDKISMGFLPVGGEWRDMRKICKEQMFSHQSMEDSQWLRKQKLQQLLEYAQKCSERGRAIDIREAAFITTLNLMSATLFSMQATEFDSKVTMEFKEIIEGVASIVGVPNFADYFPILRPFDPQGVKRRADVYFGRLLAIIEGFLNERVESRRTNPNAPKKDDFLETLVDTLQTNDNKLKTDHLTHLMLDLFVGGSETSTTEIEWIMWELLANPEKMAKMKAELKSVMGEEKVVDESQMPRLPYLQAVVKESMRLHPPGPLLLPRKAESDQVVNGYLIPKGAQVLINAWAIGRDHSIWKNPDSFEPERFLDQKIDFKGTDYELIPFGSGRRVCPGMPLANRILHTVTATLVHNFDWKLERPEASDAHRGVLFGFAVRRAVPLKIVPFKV

RoFS2 = molecular target: T4, RoFS2 (Salvia rosmarinus, UniProt A0A0C5QEW3); test: yeast co-expression, GC-MS; type: cell-based; conditions: co-expressed RoCPS1m, RoKSL1f, PtCPR2; also shown in N. benthamiana
T4 construct: gene FS2; P450 ORF in pWTDH3, expressed in S. cerevisiae AM113 with RoCPS1m, RoKSL1f and poplar reductase PtCPR2; also N. benthamiana with SfCPS, SfKSL, AtCPR1

SfFS = molecular target: T5, SfFS (Salvia fruticosa, UniProt A0A0C5QRZ2); test: yeast co-expression, GC-MS; type: cell-based; conditions: co-expressed SfCPS, SfKSL, PtCPR2; also shown in N. benthamiana
T5 construct: gene CYP76AH24; P450 ORF in pWTDH3, expressed in S. cerevisiae AM104 with SfCPSm, SfKSLm and poplar reductase PtCPR2; also N. benthamiana with AtCPR1
T5 sequence (A0A0C5QRZ2 1-492): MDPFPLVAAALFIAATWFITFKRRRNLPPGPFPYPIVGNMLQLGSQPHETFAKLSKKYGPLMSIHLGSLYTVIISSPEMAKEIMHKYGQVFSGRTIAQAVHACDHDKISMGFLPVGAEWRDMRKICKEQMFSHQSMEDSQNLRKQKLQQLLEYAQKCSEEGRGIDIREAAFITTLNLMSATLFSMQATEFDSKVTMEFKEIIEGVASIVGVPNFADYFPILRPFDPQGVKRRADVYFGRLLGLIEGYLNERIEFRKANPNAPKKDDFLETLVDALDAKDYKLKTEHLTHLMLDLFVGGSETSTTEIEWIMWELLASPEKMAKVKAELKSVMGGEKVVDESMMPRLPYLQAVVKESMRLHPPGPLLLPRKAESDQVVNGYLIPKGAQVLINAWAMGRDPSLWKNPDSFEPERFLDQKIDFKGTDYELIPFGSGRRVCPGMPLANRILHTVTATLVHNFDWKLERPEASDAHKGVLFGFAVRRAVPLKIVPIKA

SfKSL [2] = molecular target: T1, SfKSL; test: coupled assay with SfCPS, GC-MS; NMR of product from yeast; type: biochemical; conditions: CDP formed in situ by SfCPS from 200 uM GGDP; pH 7.0, 20 mM MgCl2, 0.2 mM MnCl2, room temperature overnight

T2 sequence (A0A0A7RQ84 entry or part of it): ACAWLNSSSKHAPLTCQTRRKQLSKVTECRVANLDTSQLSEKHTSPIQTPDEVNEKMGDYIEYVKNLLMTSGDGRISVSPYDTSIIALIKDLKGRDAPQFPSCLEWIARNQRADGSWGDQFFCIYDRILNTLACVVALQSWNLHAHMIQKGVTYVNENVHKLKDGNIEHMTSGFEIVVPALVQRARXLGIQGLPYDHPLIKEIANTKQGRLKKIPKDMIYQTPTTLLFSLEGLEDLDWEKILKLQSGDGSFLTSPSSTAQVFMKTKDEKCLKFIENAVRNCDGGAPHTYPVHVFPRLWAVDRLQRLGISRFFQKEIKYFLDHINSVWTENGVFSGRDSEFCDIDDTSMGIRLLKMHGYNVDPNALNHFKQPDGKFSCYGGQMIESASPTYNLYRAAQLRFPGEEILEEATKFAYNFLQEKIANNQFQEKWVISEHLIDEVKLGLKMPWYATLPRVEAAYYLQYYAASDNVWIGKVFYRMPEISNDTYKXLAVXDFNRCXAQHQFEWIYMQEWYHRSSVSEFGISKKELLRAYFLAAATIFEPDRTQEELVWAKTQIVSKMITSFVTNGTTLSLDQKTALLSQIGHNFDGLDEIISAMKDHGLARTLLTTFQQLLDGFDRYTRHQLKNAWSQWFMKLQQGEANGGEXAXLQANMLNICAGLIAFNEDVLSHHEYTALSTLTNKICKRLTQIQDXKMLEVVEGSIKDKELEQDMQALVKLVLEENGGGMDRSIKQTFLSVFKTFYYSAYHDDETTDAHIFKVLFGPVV
T4 sequence (A0A0C5QEW3 entry or part of it): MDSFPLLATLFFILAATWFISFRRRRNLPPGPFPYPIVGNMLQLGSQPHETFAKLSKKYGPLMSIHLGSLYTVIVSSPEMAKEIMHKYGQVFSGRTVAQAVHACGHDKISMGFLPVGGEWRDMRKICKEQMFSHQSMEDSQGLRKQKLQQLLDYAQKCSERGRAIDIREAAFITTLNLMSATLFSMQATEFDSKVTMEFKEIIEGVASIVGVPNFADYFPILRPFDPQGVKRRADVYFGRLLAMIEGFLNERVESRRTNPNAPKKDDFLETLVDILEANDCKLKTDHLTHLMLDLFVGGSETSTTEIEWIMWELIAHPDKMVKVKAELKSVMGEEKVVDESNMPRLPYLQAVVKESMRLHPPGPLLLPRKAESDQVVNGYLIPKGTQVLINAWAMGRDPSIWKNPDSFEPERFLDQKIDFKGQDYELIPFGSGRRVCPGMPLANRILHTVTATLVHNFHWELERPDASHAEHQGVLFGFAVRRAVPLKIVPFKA

## C=C1CC[C@H]2C(C)(C)CCC[C@]2(C)[C@H]1CC/C(C)=C/COP(=O)(O)OP(=O)(O)O [CDP]
SfKSL [1]
  coupled assay with SfCPS, GC-MS of product: simultaneously with SfCPS in order to provide the necessary CDP substrate
SfCPS; detected as copalol after alkaline phosphatase
  GC-MS of dephosphorylated product (copalol): identify the dephosphorylated product of the SfCPS catalyzed reaction as copalol

## CC(C)=CCC/C(C)=C/CC/C(C)=C/CC/C(C)=C/COP(=O)(O)OP(=O)(O)O [GGDP]
SfCPS
  GC-MS of dephosphorylated product (copalol): His-tagged SfCPS protein was affinity purified and incubated with GGDP

## CC(C)c1cc2c(cc1O)[C@@]1(C)CCCC(C)(C)[C@@H]1CC2 [ferruginol]
RoFS1
  yeast co-expression, GC-MS: GC-MS revealed the formation of ferruginol in all three strains analyzed
RoFS2
  yeast co-expression, GC-MS: GC-MS revealed the formation of ferruginol in all three strains analyzed
SfFS
  yeast co-expression, GC-MS: GC-MS revealed the formation of ferruginol in all three strains analyzed

## CC(C)C1=CCC2=C(CC[C@H]3C(C)(C)CCC[C@]23C)C1 [miltiradiene]
SfKSL [2]
  coupled assay with SfCPS, GC-MS; NMR of product from yeast: revealed a peak, which most closely corresponded to miltiradiene
